Activity calls are given as the source filed them. No cut-off for these calls is given here.
Experiments:
[1] = test system: von Hippel-Lindau disease tumor suppressor/Epidermal growth factor receptor (Homo sapiens), P00533+P40337 [L858R,T790M,C797S]; assay: PROTAC activity at VHL/EGFR L858R/T790M/C797S mutant in human H1975-TM cells assessed as downregulation of EGFR phosphorylation incubated for 48 hrs by Western blot analysis; format: cell-based
[2] = AUC (0 to t) in SPF ICR mouse at 2 mg/kg,iv measured upto 24 hrs by LC-MS/MS analysis; format: ADME, organism-based; conditions: in vivo
[3] = test system: NCI-H1975; assay: Antitumor activity against human NCI-H1975 cells xenografted in BALB/c mouse assessed as tumor growth inhibition at 10 mg/kg,ip once daily for 22 days relative to control; format: functional; conditions: NCI-H1975, 528 h, time 22 day, read-out: TGI
[4] = test system: von Hippel-Lindau disease tumor suppressor/Epidermal growth factor receptor (Homo sapiens), P00533+P40337 [L858R,T790M]; assay: PROTAC activity at VHL/EGFR L858R/T790M mutant in human NCI-H1975 cells assessed as induction of EGFR degradation at 100 nM preincubated with MLN-4924 for 6 hrs followed by compound treatment for 48 hrs by Western blot analysis; format: cell-based
[5] = test system: von Hippel-Lindau disease tumor suppressor/Epidermal growth factor receptor (Homo sapiens), P00533+P40337 [L858R,T790M,C797S]; assay: PROTAC activity at VHL/EGFR L858R/T790M/C797S mutant in human H1975-TM cells assessed as downregulation of ERK phosphorylation incubated for 48 hrs by Western blot analysis; format: cell-based
[6] = Metabolic stability in dog liver microsomes assessed as elimination rate constant at 1 uM incubated upto 60 mins in presence of NADPH by LC-MS/MS analysis; format: ADME, Canis lupus familiaris, Microsome
[7] = test system: HCC827; assay: Antitumor activity against human HCC827 cells xenografted in BALB/c mouse assessed as tumor growth inhibition at 2.5 mg/kg,ip once daily for 28 days relative to control; format: functional; conditions: HCC827, 672 h, time 28 day, read-out: TGI
[8] = test system: von Hippel-Lindau disease tumor suppressor/Epidermal growth factor receptor (Homo sapiens), P00533+P40337 [L858R,T790M]; assay: PROTAC activity at VHL/EGFR L858R/T790M mutant in human NCI-H1975 cells assessed as maximal EGFR degradation at 0.07 to 5 uM incubated for 72 hrs by Western blot analysis relative to control; format: cell-based; conditions: dose 0.07-5 µM
[9] = test system: von Hippel-Lindau disease tumor suppressor/Epidermal growth factor receptor (Homo sapiens), P00533+P40337 [UNDEFINED MUTATION]; assay: PROTAC activity at VHL/EGFR Del19 mutant in human HCC827 cells assessed as downregulation of ERK phosphorylation incubated for 72 hrs by Western blot analysis; format: cell-based
[10] = MRT (0 to infinity) in SPF ICR mouse at 5 mg/kg,ip measured upto 24 hrs by LC-MS/MS analysis; format: ADME, organism-based; conditions: in vivo
[11] = test system: von Hippel-Lindau disease tumor suppressor/Epidermal growth factor receptor (Homo sapiens), P00533+P40337 [L858R,T790M,C797S]; assay: PROTAC activity at VHL/EGFR L858R/T790M/C797S mutant in human H1975-TM cells assessed as maximal EGFR degradation at 0.03 to 2.5 uM incubated for 48 hrs by Western blot analysis relative to control; format: cell-based; conditions: dose 0.03-2.5 µM
[12] = AUC (0 to infinity) in SPF ICR mouse at 2 mg/kg,iv measured upto 24 hrs by LC-MS/MS analysis; format: ADME, organism-based; conditions: in vivo
[13] = AUC (0 to t) in SPF ICR mouse at 5 mg/kg,ip measured upto 24 hrs by LC-MS/MS analysis; format: ADME, organism-based; conditions: in vivo
[14] = test system: H1975-TM; assay: Antitumor activity against human H1975-TM cells xenografted in BALB/c mouse assessed as downregulation of AKT phosphorylation in tumor at 5 to 20 mg/kg,ip once daily for 14 days by Western blot analysis; format: functional, organism-based; conditions: dose 5-20 mg/kg, time 14.0 day
[15] = test system: von Hippel-Lindau disease tumor suppressor/Epidermal growth factor receptor (Homo sapiens), P00533+P40337 [L858R,T790M]; assay: PROTAC activity at VHL/EGFR L858R/T790M mutant in human NCI-H1975 cells assessed as downregulation of EGFR phosphorylation incubated for 72 hrs by Western blot analysis; format: cell-based
[16] = test system: von Hippel-Lindau disease tumor suppressor/Epidermal growth factor receptor (Homo sapiens), P00533+P40337 [L858R,T790M]; assay: PROTAC activity at VHL/EGFR L858R/T790M mutant in human NCI-H1975 cells assessed as induction of EGFR degradation at 2 uM by Western blot analysis; format: cell-based; conditions: TDE = time-dependent effect
[17] = test system: von Hippel-Lindau disease tumor suppressor/Epidermal growth factor receptor (Homo sapiens), P00533+P40337 [L858R,T790M,C797S]; assay: PROTAC activity at VHL/EGFR L858R/T790M/C797S mutant in human H1975-TM cells assessed as induction of EGFR degradation at 100 nM preincubated with MG-132 for 6 hrs followed by compound treatment for 48 hrs by Western blot analysis; format: cell-based

Question: What does the source list for `CCN(CC)C/C=C/C(=O)Nc1cc2c(Nc3ccc(F)c(Cl)c3)ncnc2cc1OCc1cn(CCCCCCCC(=O)N[C@H](C(=O)N2C[C@H](O)C[C@H]2C(=O)N[C@H](C)c2ccc(-c3scnc3C)cc2)C(C)(C)C)nn1`?
Answer: Activity [1]: Dose-Dependent Effect; AUC(0-t) at 24 h [2]: 2350 ng·h/mL; inhibition in vivo at 10 mg/kg [3]: 79%; Activity [4]: inactive; Activity [5]: Dose-Dependent Effect; k el at 1 h, 1 µM [6]: 0.00015 s⁻¹; inhibition in vivo at 2.5 mg/kg [7]: 67%; Emax [8]: 94%; Activity [9]: Dose-Dependent Effect; MRT inf [10]: 2.89 h; Emax [11]: 94%; AUC(0-inf) [12]: 2360 ng·h/mL; AUC(0-t) at 24 h [13]: 2820 ng·h/mL; Activity [14]: Active; Activity [15]: Dose-Dependent Effect; Activity [16]: Tde; Activity [17]: inactive
